Tested on: MDA-MB-468 cells, persister genes
Assay: scRNA-seq expression changes induced by EZH2i-1 in the absence of chemotherapy
Type: cell-based, human
Protocol: Cell lines, culture conditions and drug treatments. MDA-MB-468 cells were cultured in DMEM (Gibco-BRL, Ref: 11966025), supplemented with 10% heat-inactivated fetal calf serum (Gibco-BRL, Ref: 10270-106). HCC38 and BT20 cell lines were cultured in RPMI 1640 (Gibco-BRL, Ref: 11875085), supplemented with 10% heat-inactivated fetal calf serum. […] Cells were treated with 5 μM of 5-FU (Sigma, Ref: F6627) alone or in combination with KDM6A/Bi or EZH2i for indicated days. For EZH2i, cells were pretreated with UNC 1999, UNC 2400 or GSK 126 for 10 days before the addition of 5-FU for an additional 21 days (FIG. 4 and Extended FIG. 8).
Single-cell RNA-seq. For each single cell suspension (DMSO-DO- #1, 5-FU-D33- #1, 5-FU-D214- #1, 5-FU-D67- #2, 5-FU-D171- #2, 5-FU-D50- #3, 5-FU-D77- #3 and 5-FU-D202- #3) or PDX dissociated cells (PDX_95, PDX_39 or PDX_172, untreated and persister cells), approximately 3,000 cells were loaded on a Chromium Single Cell Controller Instrument (Chromium Single Cell 3′v3, 10× Genomics, Ref: PN-1000075) according to the manufacturer's instructions. Samples and libraries were prepared according to the manufacturer's instructions. Libraries were sequenced on a NovaSeq 6000 (Illumina) in PE 28-8-91 with a coverage of 50,000 reads/cell.
Single-cell RNA-seq analysis. The scRNA-seq sequencing files were preprocessed using the cellRanger pipeline. For PDX samples, files were aligned against hg19 and mm10 genomes and only cells with a majority of human reads were retained for the analysis. For the MDA-MB-468 human cell line, sequences were aligned against the hg38 genome only. Cells with less than 3,000 […] for MDA-MB-468 or 2,500 for PDX or more than 8,000 detected genes, or more than 100,000 reads were filtered out, as well as cells with a percent of mitochondrial reads greater than 15% or a percentage of spike in greater than 5%. Normalization, dimensionality reduction and Louvain clustering was done using monocle3 (v0.2.2)^52 keeping the first 50 Principal Components (PC). Cell cycle was determined for each cell using Seurat (v3.1.5)^53. […] Differentially expressed genes were obtained by comparing raw gene expression values using edgeR GLM statistical model^54. […] For MDA-MB-468 samples, as the number of cells was high, a subset of 500 cells per cluster was subsampled from each cluster for the differential analysis and downstream steps. Intra-cluster correlation scores were calculated using Pearson's correlation score, with a random subsampling of n=500 cells per cluster.

## CCCc1cc(C)[nH]c(=O)c1CNC(=O)c1cc(-c2ccc(N3CCN(C(C)C)CC3)nc2)cc2c1cnn2C(C)C [EZH2i-1]
23/37 genes, no chemotherapy
  activation of persister genes with depletion of H3K27me3 upon 5-FU treatment: 62%
78/131 genes, no chemotherapy
  over-expression of persister genes independently of any H3K27me3 enrichment in untreated cells: 60%
EZH2i-1 treatment
  expression of candidate master TFs FOXQ1, FOSL1 and N 2RF2: re-expressed by EZH2i-1 treatment
Early time points, D33 versus D0
  Pearson correlation of expression fold-changes induced by EZH2i-1 with those induced by chemotherapy in persister cells: 0.71
Resistant cells
  Pearson correlation of expression fold-changes induced by EZH2i-1 with changes in resistant cells: 0.31
